Format in all cases: cell-based
In test [1] the test system is Human Acute T Lymphoblastic Leukemia Cells (Molt-4). Put plainly: Inhibition of Molt-4 cell proliferation (CellTiter luminescent viability). Conditions: Homo sapiens, MOLT-4, 96 h, Table IA2, IRAK4 inhibitor-based, 96 hours. As for the experimental part: (§1) The tumor cells used herein were cultured in a cell culture medium listed in table 3 at 37 °C in an incubator with 5% CO2. Prior to experimentation, all cell lines used were correctly identified by STR profiling, and tested negative for mycoplasma contamination using a mycoplasma detection kit through routine screenings.
(§2) The IC50 values of the compounds of the present disclosure (including the compounds in Table 1, Table 2, and Examples 1-468) were determined using the CellTiter-Meiluncell Luminescent Cell Viability Assay Kit from Dalian Meilun Biotech Co., Ltd. The detailed procedure is as follows: Tumor cells were seeded in 96-well cell culture plates at the densities specified in Table 4. On the following day, the test compounds of the present disclosure were subjected to serial dilution. The dilution can be performed according to one of the following two methods: • (1) The first dilution method: The test compounds of the present disclosure (including the compounds in Table 1, Table 2, and Examples 1-468) were subjected to 5-fold serial dilutions starting from a highest concentration of 2000 μM, resulting in a total of 9 concentrations from high to low (2000, 400, 80, 16, 3.2, 0.64, 0.128, 0.0256, 0.00512 μM). Subsequently, 0.5 μL of the test compound dilution was transferred into the 96-well plate containing the cells, with each well containing 100 μL of cell culture medium. […] Into the 96-well plate, the diluted test compounds and corresponding detection reagents were added, resulting in final test compound concentrations of 500 nM and 10 nM, respectively. The experimental procedure is described below using the diluted 2 μM test compound as an example.
(§3) 0.5 μL of the aforementioned diluted compound of the present disclosure (including the compounds in Table 1, Table 2, and Examples 1-468) was added to the seeded cells in 100 μL of medium, yielding a final test compound concentration of 10 nM. After the cells were treated with the compounds of the present disclosure for a specified period, the cell viability assay reagent was added to the culture medium according to the kit's instructions to determine cell viability. […] All controls were treated using the same procedure as the compounds of the present disclosure. The growth inhibition curves for the compounds of the present disclosure were plotted using Prism GraphPad software, and the IC50 values were calculated therefrom.

The target of test [2] is T1, IRAK4 (Homo sapiens, UniProt Q9NWZ3).
T1 construct: expression of target proteins in cells; endogenous in cells
T1 sequence (Q9NWZ3 1-460): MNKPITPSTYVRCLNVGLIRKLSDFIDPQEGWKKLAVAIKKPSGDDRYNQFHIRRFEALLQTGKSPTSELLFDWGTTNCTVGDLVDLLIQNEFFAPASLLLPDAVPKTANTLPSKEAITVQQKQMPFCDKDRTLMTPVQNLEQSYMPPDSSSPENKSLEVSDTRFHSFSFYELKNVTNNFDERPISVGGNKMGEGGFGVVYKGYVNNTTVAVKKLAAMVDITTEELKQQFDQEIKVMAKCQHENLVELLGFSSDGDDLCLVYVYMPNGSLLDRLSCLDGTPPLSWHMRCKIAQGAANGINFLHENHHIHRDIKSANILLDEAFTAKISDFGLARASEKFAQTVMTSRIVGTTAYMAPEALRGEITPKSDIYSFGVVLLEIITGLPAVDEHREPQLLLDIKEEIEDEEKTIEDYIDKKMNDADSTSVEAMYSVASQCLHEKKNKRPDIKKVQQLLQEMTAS
Put plainly: Western blot degradation of IRAK4. The following applies: hPBMC Cell; 24 hours. Summed up: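 Compound-treated cells harvested; lysates denatured 5 min at 95 °C, run on SDS-PAGE, blotted to NC membrane, blocked 1 h RT, probed with antibodies. Densitometry vs DMSO → DC50; target normalised to internal control → % remaining, degradation = 1 − remaining.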
For orientation: A western blot detects proteins with antibodies after separation by electrophoresis.

Test [3] relates to Human myeloid monocytic leukemia cell line (MV-4-11). Nature of the test: Inhibition of MV-4-11 cell proliferation (CellTiter luminescent viability). The following applies: Homo sapiens, MV4-11, Table IA3, IRAK4 inhibitor-based, 96 hours; for inhibition at 0.01 µM: MV-4-11, 10 nM, read-out: Inhibition Rate at 10 nM (%); for inhibition at 0.5 µM: MV-4-11, 500 nM, read-out: Inhibition Rate at 500 nM (%). In short, it runs like this:
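Cells are seeded in 96-well plates, cultured at 37 °C, 5% CO2, and treated next day with 5-fold serial compound dilutions (stock series from 2000 μM; 0.5 μL into 100 μL medium). Viability is read by CellTiter-Meiluncell luminescence after the set exposure, and IC50 is taken from growth-inhibition curves.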

In test [4] the test system is Human Multiple myeloma cell line (MM.1S). Put plainly: Inhibition of MM.1S cell proliferation (CellTiter luminescent viability). Conditions: Table IA1, IRAK4 inhibitor-based, 96 hours, read-out: Inhibitory activity (IC50, nM) on tumor cell proliferation, MM.1S. As for the experimental part: as §1, §2, §3

What is called inhibition is the change of the read-out against control, counted positive when it falls. As to `COc1cc2nn([C@H]3CC[C@H](CN4CC5CCC(C4)N5c4ccc5c(c4)C(=O)N(N4CCC(=O)NC4=O)C5=O)CC3)cc2cc1NC(=O)c1cccc(C(F)(F)F)n1` [GT-08652, N-(2-((1r,4r)-4-((8-(2-(2,4-dioxotetrahydropyrimidin-1(2H)-yl)-1,3-dioxoisoindolin-5-yl)-3,8-diazabicyclo[3.2.1]octan-3-yl)methyl)cyclohexyl)-6-methoxy-2H-indazol-5-yl)-6-(trifluoromethyl) picolinamide], in test [1] (Molt-4, 10 nM, read-out: Inhibition Rate at 10 nM (%)), the inhibition at 0.01 µM lay within 15 to 20%. Moreover, in test [1] (Molt-4, 500 nM, read-out: Inhibition Rate at 500 nM (%)), the inhibition at 0.5 µM was 15 to 20%. In test [2], the “Degradation of substrate protein IRAK4 (substrate protein remaining %)” value (“Degradation … (substrate protein remaining %)” below) is reported as “A (0%≤substrate protein remaining %≤80%)”.

As to `COc1cc2nn(C3CCN(CC4CCN(c5cccc6c5C(=O)N(N5CCC(=O)NC5=O)C6=O)CC4)CC3)cc2cc1NC(=O)c1cccc(C(F)(F)F)n1` [GT-05817, N-(2-(1-((1-(2-(2,4-dioxotetrahydropyrimidin-1(2H)-yl)-1,3-dioxoisoindolin-4-yl)piperidin-4-yl)methyl)piperidin-4-yl)-6-methoxy-2H-indazol-5-yl)-6-(trifluoromethyl) picolinamide], in test [3], the inhibition at 0.01 µM was -5 to 0% and the inhibition at 0.5 µM is 50 to 60%. In addition, the “Degradation … (substrate protein remaining %)” value in test [2] is listed as “A (0%≤substrate protein remaining %≤80%)”.

In the case of `O=C1CCN(N2C(=O)c3ccc(N4CCC(N5CCC(CN6CCC(n7cc(NC(=O)c8coc(-c9ccnc(NCC(F)(F)F)c9)n8)c(C(F)F)n7)CC6)CC5)CC4)cc3C2=O)C(=O)N1` [GT-05144, N-(3-(difluoromethyl)-1-(1-((1′-(2-(2,4-dioxotetrahydropyrimidin-1(2H)-yl)-1,3-dioxoisoindolin-5-yl)-[1,4′-bipiperidin]-4-yl)methyl)piperidin-4-yl)-1H-pyrazol-4-yl)-2-(2-((2,2,2-trifluoroethyl)amino)pyridin-4-yl) oxazole-4-carboxamide], in test [2], the “Degradation … (substrate protein remaining %)” value is given as “A (0%≤substrate protein remaining %≤80%)”.

Regarding `O=C1CCN(N2C(=O)c3cccc(N4CCC(CN5CCN(c6ccc7c(c6)nc(NC(=O)c6cccc(C(F)(F)F)c6)n7[C@H]6CC[C@@H](CO)CC6)CC5)CC4)c3C2=O)C(=O)N1` [GT-05325, N-(5-(4-((1-(2-(2,4-dioxotetrahydropyrimidin-1(2H)-yl)-1,3-dioxoisoindolin-4-yl)piperidin-4-yl)methyl)piperazin-1-yl)-1-((1s,4s)-4-(hydroxymethyl)cyclohexyl)-1H-benzo[d]imidazol-2-yl)-3-(trifluoromethyl)benzamide], in test [3], the inhibition at 0.01 µM was -15 to -10% and the inhibition at 0.5 µM lay within 60 to 80%. Besides, in test [2], the “Degradation … (substrate protein remaining %)” value is “A (0%≤substrate protein remaining %≤80%)”.

Regarding `O=C1CCN(N2C(=O)c3ccc(N4CCC(CN5CCC(n6cc(NC(=O)c7coc(-c8ccnc(NCC9CC9)c8)n7)c(C(F)F)n6)CC5)CC4)cc3C2=O)C(=O)N1` [GT-04953, 2-(2-((cyclopropylmethyl)amino)pyridin-4-yl)-N-(3-(difluoromethyl)-1-(1-((1-(2-(2,4-dioxotetrahydropyrimidin-1(2H)-yl)-1,3-dioxoisoindolin-5-yl)piperidin-4-yl)methyl)piperidin-4-yl)-1H-pyrazol-4-yl) oxazole-4-carboxamide], the IC50 in test [4] lay within 500 to 1000 nM. In addition, the “Degradation … (substrate protein remaining %)” value in test [2] was “A (0%≤substrate protein remaining %≤80%)”.

Take `CC(C)Nc1cc(-n2ccc3cc(C#N)cnc32)ncc1C(=O)NC1CCN(CC2CCN(c3ccc4c(c3)C(=O)N(N3CCC(=O)NC3=O)C4=O)CC2)CC1` [GT-05813, 6-(5-cyano-1H-pyrrolo[2,3-b]pyridin-1-yl)-N-(1-((1-(2-(2,4-dioxotetrahydropyrimidin-1(2H)-yl)-1,3-dioxoisoindolin-5-yl)piperidin-4-yl)methyl)piperidin-4-yl)-4-(isopropylamino) nicotinamide]: in test [2], the “Degradation … (substrate protein remaining %)” value is given as “A (0%≤substrate protein remaining %≤80%)”.

For `O=C1CCN(N2C(=O)c3ccc(N4C[C@H]5C[C@@H]4CN5C[C@H]4CC[C@H](n5cc(NC(=O)c6cnn7ccc(N8C[C@H]9C[C@@H]8CO9)nc67)c(C(F)F)n5)CC4)cc3C2=O)C(=O)N1` [GT-05238, 5-((1R,4R)-2-oxa-5-azabicyclo[2.2.1]heptan-5-yl)-N-(3-(difluoromethyl)-1-((1R,4R)-4-(((1R,4R)-5-(2-(2,4-dioxotetrahydropyrimidin-1(2H)-yl)-1,3-dioxoisoindolin-5-yl)-2,5-diazabicyclo[2.2.1]heptan-2-yl)methyl)cyclohexyl)-1H-pyrazol-4-yl)pyrazolo[1,5-a]pyrimidine-3-carboxamide], in test [3], the inhibition at 0.01 µM fell in the range of 20 to 36% and the inhibition at 0.5 µM fell in the range of 60 to 80%. The “Degradation … (substrate protein remaining %)” value in test [2] is listed as “A (0%≤substrate protein remaining %≤80%)”.

Consider `COc1ccc2cn(C3CCN(Cc4ccc5c(c4)CN(N4CCC(=O)NC4=O)C5=O)CC3)nc2c1NC(=O)c1cccc(C(F)(F)F)c1` [GT-04884, N-(2-(1-((2-(2,4-dioxotetrahydropyrimidin-1(2H)-yl)-1-oxoisoindolin-5-yl)methyl)piperidin-4-yl)-6-methoxy-2H-indazol-7-yl)-3-(trifluoromethyl)benzamide], for which the “Degradation … (substrate protein remaining %)” value in test [2] is “A (0%≤substrate protein remaining %≤80%)”.

In the case of `O=C1CCN(N2C(=O)c3ccc(N4CCC(CN5CCN(c6ccc7c(c6)nc(NC(=O)c6cccc(C(F)(F)F)c6)n7[C@H]6CC[C@@H](CO)CC6)CC5)CC4)cc3C2=O)C(=O)N1` [GT-05055, N-(5-(4-((1-(2-(2,4-dioxotetrahydropyrimidin-1(2H)-yl)-1,3-dioxoisoindolin-5-yl)piperidin-4-yl)methyl)piperazin-1-yl)-1-((1s,4s)-4-(hydroxymethyl)cyclohexyl)-1H-benzo[d]imidazol-2-yl)-3-(trifluoromethyl)benzamide], the “Degradation … (substrate protein remaining %)” value in test [2] is recorded as “A (0%≤substrate protein remaining %≤80%)”.

As to `COc1cc2nn([C@H]3CC[C@H](CN4CCN(c5ccc6c(c5)C(=O)N(N5CCC(=O)NC5=O)C6=O)CC4)CC3)cc2cc1NC(=O)c1cccc(C(F)(F)F)n1` [GT-08647, N-(2-((1r,4r)-4-((4-(2-(2,4-dioxotetrahydropyrimidin-1(2H)-yl)-1,3-dioxoisoindolin-5-yl)piperazin-1-yl)methyl)cyclohexyl)-6-methoxy-2H-indazol-5-yl)-6-(trifluoromethyl) picolinamide], in test [2], the “Degradation … (substrate protein remaining %)” value was “A (0%≤substrate protein remaining %≤80%)”.
